Results on 120 molecules are retold here after a melting point compilation (Tetko et al.).

In the case of `O=C(O)CCC(=O)N1CCN(S(=O)(=O)c2ccccc2)CC1`, the melting point (as a rule, the temperature, or range, at which the solid turns liquid) is 155 to 157 °C. Take `Nc1ncc(Cc2c(Cl)cccc2Cl)s1`: the melting point fell in the range of 139 to 141 °C.

With `CC(Cl)C(=O)NC(C)c1ccc2c(c1)CCCC2` (stereo not given), the melting point fell in the range of 106 to 108 °C. `CC(O)CS(=O)(=O)c1ccccc1` (stereo not given) gave a melting point of 46 to 48 °C. In the case of `Cc1ccc(Cl)c(OCC(=O)O)c1`, the melting point was in the range of 134 to 136 °C. In turn, `O=C(O)C1=CC=CN2CCS(=O)(=O)N=C12` displayed a melting point of 313 to 315 °C. In turn, `O=C(O)c1ccc(S(=O)(=O)c2ccccc2)s1` displayed a melting point of 192 to 194 °C. The value for `O=C(O)C1CCCCC1C(=O)N1CCCC1` (stereo not given) was 119 to 121 °C; that for `CCCC1CNCCN1` (stereo not given) was 59 to 61 °C; that for `NS(=O)(=O)c1ccc(Cl)cc1F` was 104 to 106 °C. On to `COc1ccccc1NS(=O)(=O)c1ccc(NN)c([N+](=O)[O-])c1`, for which the melting point lay in the range of 181 to 183 °C. The molecule `O=C1CCC(C(F)(F)F)=NN1` yielded a melting point of 75 to 77 °C. Turning to `Cc1cscc1C(=O)O`, the melting point was 135 to 137 °C.

Consider `Cc1cc(C)n2nc(N)nc2n1`, for which the melting point was in the range of 369 to 371 °C. The same measure for `FC(F)Oc1ccc(-c2nnc(S)o2)cc1`: 121 to 123 °C; for `CC1CN=C(Nc2cccc(S(=O)(=O)N(C)C)c2)S1` (stereo not given): 111 to 113 °C; for `CC(C)c1ccc(C=O)cc1[N+](=O)[O-]`: 50 to 52 °C. The same measure for `CS(=O)(=O)c1ccc(Br)cc1N`: 109 to 111 °C; for `COC(=O)c1cccc(C(=O)O)n1`: 149 to 151 °C; for `O=C(O)C(=O)NCc1ccc(F)cc1`: 134 to 136 °C. The value for `O=C(Nc1ccc(-c2ccccc2)cc1)OCC(F)(F)F` was 168 to 170 °C; that for `CC(C)(C)c1cc(N)n(-c2ncccn2)n1` was 194 to 196 °C; that for `N#CC1(N2CCN(C(=O)CCl)CC2)CCCCC1` was 97 to 99 °C. In turn, `O=C(O)C(=O)c1cnn(-c2ccccc2)c1` had a melting point of 168 to 170 °C. Turning to `Cc1ccc(NCCC#N)cc1`, the melting point was 110 to 112 °C. The molecule `O=C(O)c1cc([N+](=O)[O-])cc2c1OCCO2` registered a melting point of 248 to 250 °C. For `CC(=O)Nc1cc(N)ccc1F`, the melting point fell in the range of 134 to 136 °C. Molecule `CCN(CC)C(=O)Nc1ccc(C(C)=O)cc1` came in with a melting point of 113 to 115 °C. The value for `Cc1nc2cc(=O)[nH]n2c(C)c1CC(=O)O` was 285 to 287 °C; that for `Cc1c(Br)cccc1S(=O)(=O)Cl` was 64 to 66 °C.

Take `COc1ccc(NS(=O)(=O)c2cccc(N)c2)cc1`: the melting point lay within 109 to 111 °C. The same measure for `O=C(O)CCCOc1ccccc1Cl`: 84 to 86 °C. The value for `CC1(c2ccccc2)NC(=O)N(NC(=O)CCl)C1=O` (stereo not given) was 150 to 152 °C; that for `Clc1nc(-c2cccc(Oc3ccccc3)c2)no1` was 50 to 52 °C; that for `COc1ncnc(Cl)c1N` was 70 to 72 °C. The same measure for `CC(C)CNc1nc(-c2ccccc2[N+](=O)[O-])cs1`: 86 to 88 °C; for `CCC(=O)c1ccc(C(=O)O)cc1`: 178 to 180 °C; for `OCc1cc(Br)c2c(c1)OCO2`: 134 to 136 °C. `COC(=O)CNc1cccc(F)c1` showed a melting point of 65 to 67 °C. The same measure for `O=C(O)c1cc(Br)c2occc2c1`: 239 to 241 °C; for `O=C(O)c1ccc(NC(=O)c2cccs2)cc1`: 227 to 229 °C.

For `Nc1ccc2c(c1)C(=O)NC2`, the melting point lay within 237 to 239 °C. In turn, `O=c1[nH]c(-c2ccc(Cl)s2)nc2c1CCC2` yielded a melting point of 276 to 278 °C.

Molecule `CC(=O)NNC(=O)C(C)Cl` (stereo not given) came in with a melting point of 156 to 158 °C.

As for `O=C(O)c1ccccc1OCc1ccc(Br)cc1`, the melting point is 119 to 121 °C. The same measure for `CC(=O)c1sc(Cc2ccccc2)nc1C`: 53 to 55 °C; for `Cc1noc(C)c1COc1cccc(C(=O)O)c1`: 157 to 159 °C. The same measure for `Cc1cc(C)c(C)c(S(N)(=O)=O)c1C`: 149 to 151 °C; for `CC(=O)c1c[nH]cc1-c1ccccc1`: 156 to 158 °C. In the case of `O=[N+]([O-])c1ccc(Cl)c(S(=O)(=O)N2CCCC2)c1`, the melting point was in the range of 114 to 116 °C.

Regarding `C=CCNC(=O)CC#N`, the melting point lay within 65 to 67 °C. For the molecule `Cc1ccc(C(=O)c2c(N)sc3c2CCC3)cc1F`, the melting point was 177 to 179 °C. The same measure for `O=c1[nH]c2cc(Br)cc(Cl)c2o1`: 189 to 191 °C. `N#Cc1cccc(C2(N)CC2)c1` came in with a melting point of 67 to 69 °C. The same measure for `O=C(O)c1cc(N2CCOCC2)ccc1[N+](=O)[O-]`: 188 to 192 °C. With `O=C(O)C1(c2cccc(C(F)(F)F)c2)CCCC1`, the melting point fell in the range of 111 to 113 °C. Consider `COc1cc(/C=C/C(=O)O)ccc1OC(C)C`, for which the melting point fell in the range of 83 to 87 °C.

`Cn1ccnc1C(O)(c1nccn1C)C1CC1` returned a melting point of 166 to 168 °C. `CCOc1ccc(CC(CN)C(N)=O)cc1` (stereo not given) displayed a melting point of 116 to 118 °C. The value for `O=C(O)c1cc(-c2ccco2)nn1-c1ccccc1` was 159 to 161 °C; that for `Nc1cc(-c2ccccc2F)no1` was 118 to 120 °C; that for `O=C(O)c1cc2ccccc2n1Cc1ccccc1` was 197 to 199 °C.

As to `Cc1ccc(C)n1-c1ccc(CC(=O)O)cc1`, the melting point was 106 to 108 °C. As for `CC1(c2ccc(S(C)(=O)=O)cc2)CO1` (stereo not given), the melting point lay in the range of 96 to 98 °C.

`Nc1nc(-c2ccccn2)cs1` registered a melting point of 135 to 137 °C.

In turn, `Cc1sc2nc(-c3ccccc3)nc(Cl)c2c1C` showed a melting point of 157 to 159 °C. The same measure for `NC(=O)CNc1ccccc1`: 139 to 141 °C; for `O=c1cc(CO)occ1OCc1ccccc1`: 96 to 98 °C. Molecule `NS(=O)(=O)c1ccc(Sc2ccccc2C(=O)O)cc1` gave a melting point of 226 to 228 °C.

`CC(C)=CCSCC(N)C(=O)O` (stereo not given): the melting point is 189 to 191 °C. The same measure for `COc1cc2nc(C)sc2cc1OC`: 70 to 72 °C; for `Nc1nc(-c2ccc(O)cc2)n[nH]1`: 268 to 270 °C; for `CN(C)C(=O)Nc1ccc(C(=O)O)c(Cl)c1`: 191 to 193 °C. As for `Cc1cccc2[nH]cc(CC(=O)O)c12`, the melting point lay in the range of 149 to 151 °C.

In the case of `O=C(CCl)Nc1ccccc1[N+](=O)[O-]`, the melting point was in the range of 91 to 93 °C.

`O=C(O)c1cnc2c(cnn2Cc2cccnc2)c1` yielded a melting point of 248 to 250 °C. `CSC=CC(=O)O` displayed a melting point of 118 to 120 °C. The value for `CC(O)CN1C(=O)C=CC1=O` (stereo not given) was 74 to 76 °C. The same measure for `O=c1[nH]c2c(s1)CCC2`: 142 to 144 °C. Consider `Sc1nc(-c2ccccc2)c[nH]1`, for which the melting point is 262 to 264 °C. Molecule `O=C(O)C1Cc2cc(F)ccc2O1` (stereo not given) had a melting point of 129 to 131 °C. The value for `O=C(O)c1cnn(-c2ccc([N+](=O)[O-])cc2)c1` was 258 to 260 °C; that for `O=C(O)CNc1ccc(Br)cc1` was 154 to 156 °C. `NCC(c1ccc(Cl)cc1Cl)c1c[nH]c2ccccc12` (stereo not given) showed a melting point of 130 to 132 °C.

The molecule `COc1cccc(C(=O)c2c[nH]c3ncccc23)c1` came in with a melting point of 139 to 141 °C.

`N#Cc1cccc(C2(C(=O)O)CC2)c1`: the melting point is 182 to 184 °C.

In turn, `O=C(O)c1ccn(Cc2ccccc2)c1` had a melting point of 150 to 152 °C.

`O=Cc1ccc(-c2ccccc2)s1` had a melting point of 90 to 92 °C. The molecule `O=C(O)c1ccc(=O)n(-c2ccc(F)cc2)n1` had a melting point of 239 to 241 °C. Turning to `O=C(Nc1ccc(Cl)cc1)OCC(F)(F)F`, the melting point lay within 69 to 71 °C. Regarding `Cc1nc(-c2ccsc2)ccc1C(=O)O`, the melting point lay within 174 to 176 °C. The molecule `CCN1CCN(C(=O)c2ccc(N)cc2)CC1` came in with a melting point of 125 to 127 °C. With `CCCCc1ccc(-n2nnnc2S)cc1`, the melting point is 88 to 92 °C. Turning to `Cc1[nH]nc(C(N)=O)c1N`, the melting point was in the range of 219 to 221 °C.

In turn, `O=C(O)CCCc1nc2ccccc2s1` returned a melting point of 148 to 150 °C. The same measure for `CN(C)S(=O)(=O)c1cc(Br)cnc1N`: 173 to 175 °C; for `Fc1cc2nc(S)[nH]c2cc1F`: 291 to 293 °C. On to `COc1cccc(-c2cc(N)n(C)n2)c1`, for which the melting point lay within 94 to 96 °C. On to `O=C(c1cnoc1)c1ccccc1O`, for which the melting point was in the range of 113 to 115 °C.

Take `CC(N)c1ccc(NC(=O)c2ccc(F)cc2)cc1` (stereo not given): the melting point lay within 110 to 112 °C. The value for `COc1nc(C)cc(Cl)n1` was 59 to 61 °C; that for `NNC(=O)c1cnn(-c2ccccc2)c1` was 179 to 181 °C. The value for `O=c1[nH]c(-c2ccc(Cl)cc2)co1` was 241 to 243 °C; that for `O=C(CCl)Nc1cccc(Oc2ccccc2)c1` was 102 to 104 °C.

On to `CCN(CC)C(=O)N1CCC(C(=O)O)CC1`, for which the melting point was 96 to 98 °C. The value for `Nc1cnccc1-c1cccc(F)c1` was 66 to 68 °C; that for `COC(=O)c1c(C(=O)OC)c(-c2ccc(N)cc2)n2c1CCC2` was 182 to 184 °C. The same measure for `CCc1ccccc1N1CC(C(=O)O)CC1=O` (stereo not given): 99 to 101 °C; for `NC(=O)c1cc(Oc2cccc(O)c2)ccn1`: 124 to 126 °C; for `CCOC(=O)COc1ccc(Cl)c2cccnc12`: 113 to 115 °C. As to `Sc1nnc(-c2sc3ccccc3c2Cl)o1`, the melting point lay in the range of 231 to 233 °C. The same measure for `O=C(O)CCNC(=O)c1ccc2[nH]nnc2c1`: 229 to 231 °C. Take `Cc1cnc(-c2cccc(N)c2)o1`: the melting point lay within 107 to 109 °C. Regarding `O=C(O)c1cccn1Cc1ccncc1`, the melting point was 199 to 201 °C.

As to `CC(C)CN1C(=O)CC(=O)NC1=O`, the melting point fell in the range of 144 to 146 °C. The same measure for `O=C(Nc1cccc(Cn2cccnc2=O)c1)OCC(F)(F)F`: 173 to 175 °C; for `CC(=O)Nc1cc(F)c(S(=O)(=O)Cl)cc1Cl`: 163 to 165 °C. The value for `COc1ccc(-c2nc(C=O)cs2)cc1` was 97 to 99 °C; that for `CC(C)C(Br)C(=O)N1CCC(C(N)=O)CC1` (stereo not given) was 172 to 174 °C.

Regarding `CCc1c(O)nc(S)n(-c2cccc(OC)c2)c1=O`, the melting point fell in the range of 141 to 143 °C.
